Results reported in ChEMBL document CHEMBL1201862, “PubChem BioAssay data set” (2004).
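1) Cells in 96-well plates. 2) Compound, 48 h, 5 concentrations. 3) Linear interpolation between surrounding doses. 4) Unreached endpoint = highest concentration. GI50 marks 50% less growth.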 Calls of active or inactive are those of the source. Rule as the data show it: active = GI50 up to about 1.1 µM and inactive = higher.

What was measured:
Test in all cases: NCI-60 cell line screen, 48 h
RPMI-8226 = test system: RPMI-8226
XF498 = test system: XF498
TK-10 = test system: TK-10
HOP-18 = test system: HOP-18
DLD-1 = test system: DLD-1
Malme-3M = test system: Malme-3M
LXFL 529 = test system: LXFL 529
SN12C = test system: SN12C
UACC-62 = test system: UACC-62
NCI-H226 = test system: NCI-H226
RXF 631 = test system: RXF 631
SK-MEL-2 = test system: SK-MEL-2
HOP-92 = test system: HOP-92
COLO 205 = test system: COLO 205
SF-295 = test system: SF-295
ACHN = test system: ACHN
NCI-H460 = test system: NCI-H460
HL-60 = test system: HL-60
OVCAR-3 = test system: OVCAR-3
NCI-H23 = test system: NCI-H23
U-251 = test system: U-251
NCI-H522 = test system: NCI-H522
A549 = test system: A549
DMS-273 = test system: DMS-273
SR = test system: SR
HCT-116 = test system: HCT-116
SK-MEL-5 = test system: SK-MEL-5
SF-539 = test system: SF-539
M14 = test system: M14
MOLT-4 = test system: MOLT-4
A498 = test system: A498
RXF 393 = test system: RXF 393
KM-20L2 = test system: KM-20L2
CAKI-1 = test system: CAKI-1
UO-31 = test system: UO-31
OVCAR-4 = test system: OVCAR-4
SNB-75 = test system: SNB-75
CCRF-CEM = test system: CCRF-CEM
K562 = test system: K562
HCT-15 = test system: HCT-15
SK-OV-3 = test system: SK-OV-3
EKVX = test system: EKVX
SK-MEL-28 = test system: SK-MEL-28
LOX IMVI = test system: LOX IMVI
OVCAR-8 = test system: OVCAR-8
DMS-114 = test system: DMS-114
IGROV-1 = test system: IGROV-1
SW-620 = test system: SW-620
HOP-62 = test system: HOP-62
UACC-257 = test system: UACC-257
786-0 = test system: 786-0
SF-268 = test system: SF-268
KM12 = test system: KM12
HT-29 = test system: HT-29
SNB-78 = test system: SNB-78
OVCAR-5 = test system: OVCAR-5
M19-MEL = test system: M19-MEL
HCC 2998 = test system: HCC 2998
SNB-19 = test system: SNB-19

## O=C(NCCCCCCNC(=O)c1cccc2ccccc12)c1cccc2ccccc12
RPMI-8226
  GI50: > 100 µM (inactive)
XF498
  GI50: 3.2 µM (inactive)
TK-10
  GI50: 14.9 µM (inactive)
HOP-18
  GI50: 24.6 µM (inactive)
DLD-1
  GI50: 59.7 µM (inactive)
Malme-3M
  GI50: 33.3 µM (inactive)
LXFL 529
  GI50: 57.1 µM (inactive)
SN12C
  GI50: 25.7 µM (inactive)
UACC-62
  GI50: > 100 µM (inactive)
NCI-H226
  GI50: 17.8 µM (inactive)
RXF 631
  GI50: 47.2 µM (inactive)
SK-MEL-2
  GI50: 12.2 µM (inactive)
HOP-92
  GI50: 7.96 µM (inactive)
COLO 205
  GI50: 1.85 µM (inactive)
SF-295
  GI50: 1.93 µM (inactive)
ACHN
  GI50: 31.4 µM (inactive)
NCI-H460
  GI50: 42.5 µM (inactive)
HL-60
  GI50: > 100 µM (inactive)
OVCAR-3
  GI50: 28.9 µM (inactive)
NCI-H23
  GI50: 31.5 µM (inactive)
U-251
  GI50: 18.3 µM (inactive)
NCI-H522
  GI50: 17.9 µM (inactive)
A549
  GI50: 35.4 µM (inactive)
DMS-273
  GI50: 2.02 µM (inactive)
SR
  GI50: > 100 µM (inactive)
HCT-116
  GI50: 14.4 µM (inactive)
SK-MEL-5
  GI50: > 100 µM (inactive)
SF-539
  GI50: 11.8 µM (inactive)
M14
  GI50: 46.8 µM (inactive)
MOLT-4
  GI50: > 100 µM (inactive)
A498
  GI50: 24.3 µM (inactive)
RXF 393
  GI50: 8.51 µM (inactive)
KM-20L2
  GI50: > 100 µM (inactive)
CAKI-1
  GI50: 21.3 µM (inactive)
UO-31
  GI50: 31.5 µM (inactive)
OVCAR-4
  GI50: 14.4 µM (inactive)
SNB-75
  GI50: 3.29 µM (inactive)
CCRF-CEM
  GI50: > 100 µM (inactive)
K562
  GI50: > 100 µM (inactive)
HCT-15
  GI50: > 100 µM
SK-OV-3
  GI50: 21.2 µM (inactive)
EKVX
  GI50: 20.5 µM (inactive)
SK-MEL-28
  GI50: > 100 µM (inactive)
LOX IMVI
  GI50: 14.2 µM (inactive)
OVCAR-8
  GI50: 18.7 µM (inactive)
DMS-114
  GI50: > 100 µM (inactive)
IGROV-1
  GI50: 32.9 µM (inactive)
SW-620
  GI50: > 100 µM (inactive)
HOP-62
  GI50: 20.5 µM (inactive)
UACC-257
  GI50: 74.3 µM (inactive)
786-0
  GI50: 23.7 µM (inactive)
SF-268
  GI50: 10.3 µM (inactive)
KM12
  GI50: > 100 µM (inactive)
HT-29
  GI50: > 100 µM (inactive)
SNB-78
  GI50: 5.42 µM (inactive)
OVCAR-5
  GI50: > 100 µM (inactive)

## CNc1ccccc1-c1nc2ccccc2c(=O)o1
RPMI-8226
  GI50: > 100 µM (inactive)
XF498
  GI50: 31 µM (inactive)
TK-10
  GI50: > 100 µM (inactive)
HOP-18
  GI50: > 100 µM (inactive)
DLD-1
  GI50: > 100 µM (inactive)
M19-MEL
  GI50: > 100 µM (inactive)
Malme-3M
  GI50: > 100 µM (inactive)
LXFL 529
  GI50: > 100 µM (inactive)
SN12C
  GI50: > 100 µM (inactive)
NCI-H226
  GI50: > 100 µM (inactive)
RXF 631
  GI50: > 100 µM (inactive)
SK-MEL-2
  GI50: > 100 µM (inactive)
HCC 2998
  GI50: > 100 µM (inactive)
COLO 205
  GI50: > 100 µM (inactive)
SF-295
  GI50: 41.2 µM (inactive)
ACHN
  GI50: > 100 µM (inactive)
NCI-H460
  GI50: > 100 µM (inactive)
HL-60
  GI50: > 100 µM (inactive)
U-251
  GI50: > 100 µM (inactive)
A549
  GI50: > 100 µM (inactive)
DMS-273
  GI50: > 100 µM (inactive)
SR
  GI50: > 100 µM (inactive)
HCT-116
  GI50: > 100 µM (inactive)
SK-MEL-5
  GI50: > 100 µM (inactive)
SF-539
  GI50: 35 µM (inactive)
M14
  GI50: > 100 µM (inactive)
MOLT-4
  GI50: > 100 µM (inactive)
SNB-19
  GI50: > 100 µM (inactive)
KM-20L2
  GI50: > 100 µM (inactive)
CAKI-1
  GI50: > 100 µM (inactive)
UO-31
  GI50: > 100 µM (inactive)
OVCAR-4
  GI50: > 100 µM (inactive)
SNB-75
  GI50: 27.4 µM (inactive)
CCRF-CEM
  GI50: > 100 µM (inactive)
K562
  GI50: > 100 µM (inactive)
HCT-15
  GI50: > 100 µM
SK-OV-3
  GI50: > 100 µM (inactive)
EKVX
  GI50: > 100 µM (inactive)
SK-MEL-28
  GI50: > 100 µM (inactive)
LOX IMVI
  GI50: > 100 µM (inactive)
OVCAR-8
  GI50: > 100 µM (inactive)
DMS-114
  GI50: > 100 µM (inactive)
IGROV-1
  GI50: 74.1 µM (inactive)
SW-620
  GI50: > 100 µM (inactive)
UACC-257
  GI50: > 100 µM (inactive)
SF-268
  GI50: 32 µM (inactive)
KM12
  GI50: > 100 µM (inactive)
SNB-78
  GI50: 55.3 µM (inactive)
OVCAR-5
  GI50: > 100 µM (inactive)

## O=c1c2cccc3cccc(c4n1CCCN=4)c32
RPMI-8226
  GI50: > 100 µM (inactive)
XF498
  GI50: > 100 µM (inactive)
TK-10
  GI50: 47.5 µM (inactive)
HOP-18
  GI50: > 100 µM (inactive)
DLD-1
  GI50: > 100 µM (inactive)
M19-MEL
  GI50: > 100 µM (inactive)
Malme-3M
  GI50: > 100 µM (inactive)
LXFL 529
  GI50: > 100 µM (inactive)
SN12C
  GI50: > 100 µM (inactive)
UACC-62
  GI50: > 100 µM (inactive)
NCI-H226
  GI50: > 100 µM (inactive)
RXF 631
  GI50: > 100 µM (inactive)
SK-MEL-2
  GI50: > 100 µM (inactive)
HOP-92
  GI50: > 100 µM (inactive)
COLO 205
  GI50: > 100 µM (inactive)
SF-295
  GI50: > 100 µM (inactive)
ACHN
  GI50: > 100 µM (inactive)
NCI-H460
  GI50: > 100 µM (inactive)
HL-60
  GI50: 47.5 µM (inactive)
OVCAR-3
  GI50: > 100 µM (inactive)
NCI-H23
  GI50: > 100 µM (inactive)
U-251
  GI50: > 100 µM (inactive)
NCI-H522
  GI50: > 100 µM (inactive)
A549
  GI50: > 100 µM (inactive)
DMS-273
  GI50: > 100 µM (inactive)
SR
  GI50: 31.3 µM (inactive)
HCT-116
  GI50: 31 µM (inactive)
SK-MEL-5
  GI50: > 100 µM (inactive)
SF-539
  GI50: > 100 µM (inactive)
M14
  GI50: > 100 µM (inactive)
MOLT-4
  GI50: 35.7 µM (inactive)
A498
  GI50: > 100 µM (inactive)
RXF 393
  GI50: > 100 µM (inactive)
KM-20L2
  GI50: > 100 µM (inactive)
CAKI-1
  GI50: > 100 µM (inactive)
UO-31
  GI50: 80.4 µM (inactive)
OVCAR-4
  GI50: > 100 µM (inactive)
SNB-75
  GI50: > 100 µM (inactive)
CCRF-CEM
  GI50: 41.6 µM (inactive)
K562
  GI50: > 100 µM (inactive)
HCT-15
  GI50: > 100 µM
SK-OV-3
  GI50: > 100 µM (inactive)
EKVX
  GI50: > 100 µM (inactive)
SK-MEL-28
  GI50: > 100 µM (inactive)
LOX IMVI
  GI50: 20.1 µM (inactive)
OVCAR-8
  GI50: > 100 µM (inactive)
DMS-114
  GI50: > 100 µM (inactive)
IGROV-1
  GI50: > 100 µM (inactive)
SW-620
  GI50: 92.5 µM (inactive)
HOP-62
  GI50: > 100 µM (inactive)
UACC-257
  GI50: > 100 µM (inactive)
786-0
  GI50: > 100 µM (inactive)
SF-268
  GI50: > 100 µM (inactive)
KM12
  GI50: > 100 µM (inactive)
HT-29
  GI50: > 100 µM (inactive)
SNB-78
  GI50: > 100 µM (inactive)
OVCAR-5
  GI50: 88.1 µM (inactive)
